# Assay results reported in PMC11790914, “Chemogenomics for steroid hormone receptors (NR3)” (Communications Chemistry, 2025).
# Several values for one entry are separate records, joined by “and”; a condition that tells them apart may be missing. Equal entries are not always repeated.
# Legend:
# HEK293T cells [1] = test: Cytotoxicity: necrosis induction (red fluorescent dye for permeable plasma membranes); type: cell-based; settings: 1 µM, 24 h, necrotic cell count normalized to 0.1% DMSO, single replicates;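 note: compounds applied in DMEM high glucose with 0.1% FCS and 0.1% DMSO, necrotic HEK293T cells counted by red staining of cells whose plasma membranes had become permeable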
# Gal4-VP16 = type: cell-based; settings: 1 µM; vs. DMSO ctrl; single replicates n=1-3
# ABL1 = target: T1, ABL1 (Homo sapiens, UniProt P00519); test: Liability panel screening by DSF: ABL1; type: binding; settings: DSF, 20 µM, n=2; read-out: Mean ΔTM ABL1
# T1 construct: made in house
# T1 sequence (P00519 whole entry, species assumed): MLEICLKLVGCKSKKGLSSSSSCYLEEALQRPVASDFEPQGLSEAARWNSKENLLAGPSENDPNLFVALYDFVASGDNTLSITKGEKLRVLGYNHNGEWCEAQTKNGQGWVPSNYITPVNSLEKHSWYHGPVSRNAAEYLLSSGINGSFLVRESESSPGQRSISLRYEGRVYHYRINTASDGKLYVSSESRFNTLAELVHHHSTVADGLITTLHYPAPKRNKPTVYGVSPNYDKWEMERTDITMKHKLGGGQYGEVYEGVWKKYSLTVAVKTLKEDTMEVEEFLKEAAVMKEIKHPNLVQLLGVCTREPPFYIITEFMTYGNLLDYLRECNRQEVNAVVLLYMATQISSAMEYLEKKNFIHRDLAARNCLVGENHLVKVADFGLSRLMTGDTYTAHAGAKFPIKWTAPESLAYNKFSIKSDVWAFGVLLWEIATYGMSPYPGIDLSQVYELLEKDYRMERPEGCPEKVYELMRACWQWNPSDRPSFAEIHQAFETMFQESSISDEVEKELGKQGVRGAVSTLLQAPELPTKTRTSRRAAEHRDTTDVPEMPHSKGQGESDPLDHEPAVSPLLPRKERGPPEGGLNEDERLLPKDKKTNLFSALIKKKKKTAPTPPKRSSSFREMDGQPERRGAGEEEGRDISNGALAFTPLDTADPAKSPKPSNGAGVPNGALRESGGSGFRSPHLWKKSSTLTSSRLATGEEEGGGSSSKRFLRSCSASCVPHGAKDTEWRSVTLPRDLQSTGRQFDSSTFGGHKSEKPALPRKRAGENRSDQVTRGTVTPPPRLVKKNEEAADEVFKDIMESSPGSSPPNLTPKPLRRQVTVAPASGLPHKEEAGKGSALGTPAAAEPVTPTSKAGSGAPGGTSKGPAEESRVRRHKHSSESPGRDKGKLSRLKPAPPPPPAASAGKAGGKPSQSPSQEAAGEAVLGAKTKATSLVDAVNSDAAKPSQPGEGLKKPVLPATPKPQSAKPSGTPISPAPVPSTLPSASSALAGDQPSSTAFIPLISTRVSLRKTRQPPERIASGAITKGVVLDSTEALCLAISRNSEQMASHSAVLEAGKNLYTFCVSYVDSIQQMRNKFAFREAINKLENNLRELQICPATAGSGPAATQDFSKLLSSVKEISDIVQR
# Method in brief: (§1)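 ∆Tm in K was taken from Boltzmann-fitted unfolding inflection points, run in duplicate with a temperature ramp of 3 °C per minute up to 85 °C. Each recombinant protein (2 µM) was in HEPES 10 mM pH 7.5 and NaCl 500 mM, with SYPRO Orange dye at 1:1000.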
# AURKA = target: T2, AURKA (Homo sapiens, UniProt O14965); test: Liability panel screening by DSF: AURKA; type: binding; settings: DSF, 20 µM, n=2; read-out: Mean ΔTM AURKA
# T2 construct: made in house
# T2 sequence (O14965 1-403): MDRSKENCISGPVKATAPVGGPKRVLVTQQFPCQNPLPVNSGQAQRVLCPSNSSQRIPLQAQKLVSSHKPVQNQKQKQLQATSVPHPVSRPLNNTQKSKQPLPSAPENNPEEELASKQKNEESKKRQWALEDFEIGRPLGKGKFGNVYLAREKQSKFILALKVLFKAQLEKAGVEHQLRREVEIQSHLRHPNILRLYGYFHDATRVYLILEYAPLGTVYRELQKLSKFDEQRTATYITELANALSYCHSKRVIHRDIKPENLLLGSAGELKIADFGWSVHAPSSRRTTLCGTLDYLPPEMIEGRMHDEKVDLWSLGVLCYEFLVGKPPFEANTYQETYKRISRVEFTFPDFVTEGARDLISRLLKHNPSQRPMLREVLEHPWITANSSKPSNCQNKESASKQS
# Method in brief: as §1
# CDK2 = target: T3, CDK2 (Homo sapiens, UniProt P24941); test: Liability panel screening by DSF: CDK2; type: binding; settings: DSF, 20 µM, n=2; read-out: Mean ΔTM CDK2
# T3 construct: made in house
# Method in brief: as §1
# FGFR3 = target: T4, FGFR3 (Homo sapiens, UniProt P22607); test: Liability panel screening by DSF: FGFR3; type: binding; settings: DSF, 20 µM, n=2; read-out: Mean ΔTM FGFR3
# T4 construct: made in house
# T4 sequence (P22607 23-806, species assumed): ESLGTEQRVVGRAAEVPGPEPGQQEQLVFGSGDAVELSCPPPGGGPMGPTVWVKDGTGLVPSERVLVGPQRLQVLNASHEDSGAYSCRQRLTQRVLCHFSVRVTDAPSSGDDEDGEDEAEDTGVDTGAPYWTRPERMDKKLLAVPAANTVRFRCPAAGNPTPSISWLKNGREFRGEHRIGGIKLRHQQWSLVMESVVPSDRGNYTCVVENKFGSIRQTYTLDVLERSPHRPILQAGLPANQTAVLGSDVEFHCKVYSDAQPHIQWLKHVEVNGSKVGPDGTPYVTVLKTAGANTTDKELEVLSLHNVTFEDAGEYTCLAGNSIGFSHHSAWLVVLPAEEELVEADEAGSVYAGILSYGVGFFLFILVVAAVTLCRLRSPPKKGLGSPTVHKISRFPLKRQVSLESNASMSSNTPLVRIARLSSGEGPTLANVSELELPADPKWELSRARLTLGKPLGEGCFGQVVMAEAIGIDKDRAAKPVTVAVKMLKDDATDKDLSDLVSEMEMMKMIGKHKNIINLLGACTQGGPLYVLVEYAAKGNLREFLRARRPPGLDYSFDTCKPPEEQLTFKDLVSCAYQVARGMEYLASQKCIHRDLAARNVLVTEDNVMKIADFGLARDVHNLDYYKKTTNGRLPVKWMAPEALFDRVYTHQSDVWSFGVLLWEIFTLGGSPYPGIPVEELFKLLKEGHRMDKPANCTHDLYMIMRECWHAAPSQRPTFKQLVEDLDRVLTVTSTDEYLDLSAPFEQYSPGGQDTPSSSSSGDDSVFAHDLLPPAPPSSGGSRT
# Method in brief: as §1
# GSK3B = target: T5, GSK3B (Homo sapiens, UniProt P49841); test: Liability panel screening by DSF: GSK3B; type: binding; settings: DSF, 20 µM, n=2; read-out: Mean ΔTM GSK3B
# T5 construct: made in house
# T5 sequence (P49841 whole entry, species assumed): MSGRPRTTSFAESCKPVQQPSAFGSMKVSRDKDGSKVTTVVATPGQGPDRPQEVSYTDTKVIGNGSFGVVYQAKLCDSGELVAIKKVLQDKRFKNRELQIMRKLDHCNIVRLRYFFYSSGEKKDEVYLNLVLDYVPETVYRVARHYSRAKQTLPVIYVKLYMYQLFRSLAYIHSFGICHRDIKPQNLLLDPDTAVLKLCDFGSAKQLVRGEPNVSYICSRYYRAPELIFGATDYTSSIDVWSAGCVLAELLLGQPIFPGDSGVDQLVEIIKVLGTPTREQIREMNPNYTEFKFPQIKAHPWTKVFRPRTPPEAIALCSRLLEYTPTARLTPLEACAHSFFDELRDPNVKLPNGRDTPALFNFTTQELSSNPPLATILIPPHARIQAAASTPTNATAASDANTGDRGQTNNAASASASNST
# BRD4 = target: T6, BRD4 (Homo sapiens, UniProt O60885); test: Liability panel screening by DSF: BRD4; type: binding; settings: DSF, 20 µM, n=2; read-out: Mean ΔTM BRD4
# T6 construct: This panel comprised ten highly ligandable kinases and bromodomains; made in house
# Method in brief: as §1
# BRPF1 = target: T7, BRPF1 (Homo sapiens, UniProt P55201); test: Liability panel screening by DSF: BRPF1; type: binding; settings: DSF, 20 µM, n=2; read-out: Mean ΔTM BRPF1
# T7 construct: This panel comprised ten highly ligandable kinases and bromodomains; made in house
# T7 sequence (P55201 628-732 limits assumed): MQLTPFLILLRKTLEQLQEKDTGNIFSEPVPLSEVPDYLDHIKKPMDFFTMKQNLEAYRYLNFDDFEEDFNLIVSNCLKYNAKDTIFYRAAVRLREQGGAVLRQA
# Method in brief: as §1
# CSNK1D = target: T8, CSNK1D (Homo sapiens, UniProt P48730); test: Liability panel screening by DSF: CSNK1D; type: binding; settings: DSF, 20 µM, n=2; read-out: Mean ΔTM CSNK1D
# T8 construct: made in house
# T8 sequence (P48730 whole entry, species assumed): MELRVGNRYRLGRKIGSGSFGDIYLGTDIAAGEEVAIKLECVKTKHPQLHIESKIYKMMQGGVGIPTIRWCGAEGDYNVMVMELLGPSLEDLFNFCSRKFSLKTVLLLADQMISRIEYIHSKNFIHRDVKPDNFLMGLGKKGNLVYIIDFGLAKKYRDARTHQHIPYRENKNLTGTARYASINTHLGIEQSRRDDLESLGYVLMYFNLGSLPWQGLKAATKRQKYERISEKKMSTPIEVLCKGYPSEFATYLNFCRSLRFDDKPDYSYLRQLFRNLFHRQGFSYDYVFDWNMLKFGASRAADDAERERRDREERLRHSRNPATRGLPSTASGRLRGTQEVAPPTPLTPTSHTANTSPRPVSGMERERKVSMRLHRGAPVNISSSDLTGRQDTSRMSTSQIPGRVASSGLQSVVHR
# Method in brief: as §1
# MAPK1 = target: T9, MAPK1 (Homo sapiens, UniProt P28482); test: Liability panel screening by DSF: MAPK1; type: binding; settings: DSF, 20 µM, n=2; read-out: Mean ΔTM MAPK1
# T9 construct: made in house
# T9 sequence (P28482 whole entry, species assumed): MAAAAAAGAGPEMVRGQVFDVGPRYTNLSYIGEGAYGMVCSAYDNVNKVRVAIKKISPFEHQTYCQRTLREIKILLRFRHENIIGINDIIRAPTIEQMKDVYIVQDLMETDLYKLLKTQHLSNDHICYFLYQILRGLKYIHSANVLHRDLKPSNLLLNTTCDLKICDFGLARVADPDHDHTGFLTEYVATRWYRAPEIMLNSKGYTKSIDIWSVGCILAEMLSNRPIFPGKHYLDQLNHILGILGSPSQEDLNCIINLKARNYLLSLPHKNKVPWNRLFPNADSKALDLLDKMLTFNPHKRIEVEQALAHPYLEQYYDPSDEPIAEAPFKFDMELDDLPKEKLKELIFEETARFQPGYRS
# Method in brief: as §1
# TRIM24 = target: T10, TRIM24 (Homo sapiens, UniProt O15164); test: Liability panel screening by DSF: TRIM24; type: binding; settings: DSF, 20 µM, n=2; read-out: Mean ΔTM TRIM24
# T10 construct: This panel comprised ten highly ligandable kinases and bromodomains; made in house
# T10 sequence (O15164 899-1004 limits assumed): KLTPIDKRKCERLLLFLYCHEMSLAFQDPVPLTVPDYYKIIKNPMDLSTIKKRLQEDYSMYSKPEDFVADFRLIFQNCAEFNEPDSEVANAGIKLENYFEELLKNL
# Method in brief: as §1
# [2] = tested on: NF-κB activity in HEK293 NF-κB reporter cells; test: NF-kB activity assay (GFP reporter, ionomycin/PMA); type: cell-based; settings: n=3
# Method in brief: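 HEK293 NF-κB GFP reporter cells given compound in 0.1% DMSO for 4 h, then stimulated with ionomycin 100 ng/mL plus PMA 10 ng/mL. Imaged every 90 min over 24 h; GFP-positive cell count normalized to confluence, three independent biological replicates.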
# [3] = tested on: ATF6 activity in Hela ATF6 reporter cells; test: Endoplasmic reticulum stress assay (ATF6 Renilla luciferase reporter, tunicamycin); type: cell-based; settings: Homo sapiens, HeLa, 1 µM, single replicates n=1 to n=5; read-out: ER stress [rel. ATF6 activity]
# Method in brief: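 HeLa ATF6 Renilla reporter cells were pretreated 4 h with compounds in 0.1% DMSO, then stimulated with tunicamycin (100 ng/mL) for 18 h. Renilla luminescence (DualGlo) was normalized to 0.1% DMSO control; five independent experiments.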
# HEK293T cells [4] = test: Cytotoxicity: metabolic activity (WST-8 / CCK-8 assay); settings: 1 µM; HEK293T, 24 h; WST-8; normalized to 0.1% DMSO; single replicates
# HEK293T cells [5] = test: Cytotoxicity: growth-rate (change in confluence over 24 h); settings: 1 µM, normalized to 0.1% DMSO control, single replicates (n=1...)
# Protocol: (§2) Cells were incubated with the test compounds at the indicated concentrations solubilized with 0.1% DMSO for 24 h. Growth-rate was determined based on the change in confluence over 24 h normalized to the change in confluence of cells treated with the 0.1% DMSO control (n = 10). Metabolic activity was determined with a water-soluble tetrazolium-8 (WST-8) assay (n = 8) after 24 h treatment. Apoptotic cells were detected with a fluorogenic DNA dye coupled to the caspase-3/7 recognition sequence (DEVD) after 24 h treatment and the apoptotic cell count was normalized to 0.1% DMSO treated cells (n = 6).
# (§3) HEK293T cells (German Collection of Microorganisms and Cell Culture GmbH, DSMZ; #ACC305) were cultured in DMEM high glucose, supplemented with 10% fetal calf serum (FCS), sodium pyruvate (1 mM), penicillin (100 µ/mL) and streptomycin (100 µg/mL) at 37 °C and 5% (v/v) CO2, and seeded in pre-coated (10 µg/mL collagen G solution (Merck KgaA; #L7213) for 30 min at 37 °C) 96-well plates (2 × 10^5 cells per well). After 24 h, the cells were treated with the respective NR3 CG compound candidate at the recommended concentration, bexarotene (100 µM) or doxorubicin (30 µM) as positive controls in DMEM high glucose supplemented with 0.1% FCS, penicillin (100 µ/mL), streptomycin (100 µg/mL) and 0.1% DMSO, or 0.1% DMSO alone as an untreated control. Each sample was prepared in at least four biologically independent replicates. […] Thereafter, the medium was aspirated and the cells were incubated for 3 h with 90 µL DMEM high glucose supplemented with 0.2% FCS, penicillin (100 µ/mL) and streptomycin (100 µg/mL) and additionally containing 10 µL Cell Counting Kit 8 solution (CCK-8; MedChemExpress, Monmouth Junction, New York, USA; #HY-K0301), and absorbance was measured at 1 h, 2 h and 3 h of incubation at 450 nm on a Tecan Spark Cyto to assess metabolic activity of the cells. Before drug administration, after the first medium exchange, 24 h after drug administration, and after fluorescence imaging cell confluence was assessed using the Tecan Spark Cyto, to account for changes in cell confluence due to drug administration and cell handling. Compound effects on cell confluence, apoptosis, metabolic activity and necrosis were normalized to the vehicle control of each biological replicate individually.
# HEK293T cells [6] = test: Cytotoxicity: apoptosis induction (caspase-3/7 DEVD fluorogenic DNA dye); settings: 1 µM; HEK293T, 24 h; apoptotic cell count normalized to 0.1% DMSO; single replicates
# Protocol: as §2, §3
SMILES,Necrosis induction [NI] (HEK293T cells [1]),VP16 control [fold reporter gene activity] (Gal4-VP16),ΔTm at 20 µM (ABL1),ΔTm at 20 µM (AURKA),ΔTm at 20 µM (CDK2),ΔTm at 20 µM (FGFR3),ΔTm at 20 µM (GSK3B),ΔTm at 20 µM (BRD4),ΔTm at 20 µM (BRPF1),ΔTm at 20 µM (CSNK1D),ΔTm at 20 µM (MAPK1),ΔTm at 20 µM (TRIM24),"Mean NFκB response ([2]; 1 µM, 1,5 h)","Mean NFκB response ([2]; 1 µM, 4,5 h)","Mean NFκB response ([2]; 1 µM, 7,5 h)","Mean NFκB response ([2]; 1 µM, 10,5 h)","Mean NFκB response ([2]; 1 µM, 13,5 h)","Mean NFκB response ([2]; 1 µM, 16,6 h)","Mean NFκB response ([2]; 1 µM, 19,5 h)","Mean NFκB response ([2]; 1 µM, 22,5 h)",other results
Oc1ccc(-c2c(-c3ccccc3)nn3c(C(F)(F)F)cc(C(F)(F)F)nc23)cc1 [PHTPP],1.05 and 0.87 and 0.89 and 1.10,0.97 fold reporter gene activity and 1.04 fold reporter gene activity and 1.08 fold reporter gene activity,2.06 °C,-0.53 °C,0.46 °C,1.15 °C,-0.0558 °C,-1.27 °C,-1.38 °C,0.39 °C,-0.2 °C,-0.6 °C,2680.27 GFP+-cells/confluence ∙ 1000,3558.89 GFP+-cells/confluence ∙ 1000,8794.33 GFP+-cells/confluence ∙ 1000,18394.67 GFP+-cells/confluence ∙ 1000,26267.00 GFP+-cells/confluence ∙ 1000,32070.00 GFP+-cells/confluence ∙ 1000,36033.33 GFP+-cells/confluence ∙ 1000,39210.00 GFP+-cells/confluence ∙ 1000,"Mean NFκB response ([2]; 1 µM, 3 h): 2926.71 GFP+-cells/confluence ∙ 1000; Mean NFκB response ([2]; 1 µM, 6 h): 4822.41 GFP+-cells/confluence ∙ 1000; Mean NFκB response ([2]; 1 µM, 9 h): 14065.00 GFP+-cells/confluence ∙ 1000; Mean NFκB response ([2]; 1 µM, 12 h): 22714.33 GFP+-cells/confluence ∙ 1000; Mean NFκB response ([2]; 1 µM, 15 h): 29343.33 GFP+-cells/confluence ∙ 1000; Mean NFκB response ([2]; 1 µM, 18 h): 34043.33 GFP+-cells/confluence ∙ 1000; Mean NFκB response ([2]; 1 µM, 21 h): 37940.00 GFP+-cells/confluence ∙ 1000; Mean NFκB response ([2]; 1 µM, 24 h): 40376.67 GFP+-cells/confluence ∙ 1000; activity at 1 µM [3]: 100%; Metabolic activity [MA] (HEK293T cells [4]): 1.07 and 1.08 and 1.01 and 1.13 and 1.04 (2×) and 0.95 and 1.05; Growth rate [GR] (HEK293T cells [5]): 0.97 and 0.45 and 1.07 and 1.62 and 1.13 and 0.53 and 1.06 and 0.18 and 2.38 and 3.71; Apoptosis induction [AI] (HEK293T cells [6]): 0.81 and 1.09 and 0.92 and 1.05 and 0.26 and 0.21"
CC(=O)O[C@]1(C(C)=O)CC[C@H]2[C@@H]3CCC4=CC(=O)CCC4=C3[C@@H](c3ccc(N(C)C)cc3)C[C@@]21C [Ulipristal acetate],1.05 and 1.11 and 0.95 and 0.92,1.05 fold reporter gene activity and 1.09 fold reporter gene activity and 1.04 fold reporter gene activity,0.29 °C,-1.14 °C,-0.32 °C,-0.057 °C,-0.83 °C,-2.72 °C,-2.65 °C,0.22 °C,-0.0546 °C,-1.79 °C,2644.31 GFP+-cells/confluence ∙ 1000,3036.67 GFP+-cells/confluence ∙ 1000,6043.33 GFP+-cells/confluence ∙ 1000,16570.00 GFP+-cells/confluence ∙ 1000,25096.67 GFP+-cells/confluence ∙ 1000,31636.67 GFP+-cells/confluence ∙ 1000,36313.33 GFP+-cells/confluence ∙ 1000,39910.00 GFP+-cells/confluence ∙ 1000,"Mean NFκB response ([2]; 1 µM, 3 h): 2710.00 GFP+-cells/confluence ∙ 1000; Mean NFκB response ([2]; 1 µM, 6 h): 3846.67 GFP+-cells/confluence ∙ 1000; Mean NFκB response ([2]; 1 µM, 9 h): 10723.33 GFP+-cells/confluence ∙ 1000; Mean NFκB response ([2]; 1 µM, 12 h): 21213.33 GFP+-cells/confluence ∙ 1000; Mean NFκB response ([2]; 1 µM, 15 h): 28280.00 GFP+-cells/confluence ∙ 1000; Mean NFκB response ([2]; 1 µM, 18 h): 34176.67 GFP+-cells/confluence ∙ 1000; Mean NFκB response ([2]; 1 µM, 21 h): 38276.67 GFP+-cells/confluence ∙ 1000; Mean NFκB response ([2]; 1 µM, 24 h): 41050.00 GFP+-cells/confluence ∙ 1000; activity at 1 µM [3]: 102%; Metabolic activity [MA] (HEK293T cells [4]): 1.04 and 0.97 and 0.99 (2×) and 1.03 (2×) and 0.96 and 1.08; Growth rate [GR] (HEK293T cells [5]): 0.78 and 1.52 and 1.08 and 1.00 (2×) and 1.04 and 0.73 and 0.60 and 1.80 and 3.99; Apoptosis induction [AI] (HEK293T cells [6]): 0.98 (2×) and 0.83 and 1.37 and 1.27 and 0.92"
